This passage reports GI50 and TGI results from PubChem BioAssay (NCI).

Common to all, as to assay: NCI anticancer screen, dose series, 48 h
Assay [1] deals with BT-549 breast.
For assay [2], the system named is CCRF-CEM leukemia.
In assay [3] the test system is HCT-116 colon.
In assay [4] the test system is HL-60(TB) leukemia.
For assay [5], the system named is HS 578T breast.
In assay [6] the test system is MDA-MB-231 breast.
The test system of assay [7] is SK-MEL-28 melanoma.
For assay [8], the system named is SNB-19 CNS.
For assay [9], the system named is UACC-257 melanoma.
Assay [10] has as its system UACC-62 melanoma.

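Tested at 5 concentrations; 48 h exposure; 96-well plates; endpoints linearly interpolated, else capped at highest concentration. Here, GI50 denotes the concentration required for 50% inhibition of growth. The concentration for full growth arrest is given as TGI.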

For `CCc1ccc(/C=C/c2ccc(O)c3ncccc23)[n+](C)c1`, the GI50 is 15.1 µM in [1]; 4.95 µM in [2]; 4.02 µM in assay [3]; 18.8 µM in assay [4]; 51.2 µM in assay [5]; 57.9 µM in assay [6]. In addition, the GI50 in [7] was 76.2 µM; in assay [8], 11.5 µM; in assay [9] it was 16.9 µM; in assay [10], > 21.5 µM. Besides, the TGI was > 100 µM in [1]; > 100 µM in [2]; > 100 µM in assay [3]; 73.2 µM in assay [4]; > 100 µM in [5]; > 100 µM in [6]. The TGI in [7], in [8], in assay [9] and in [10] was > 100 µM in each case.

Regarding `CN(C)C(=S)Sc1ccc([N+](=O)[O-])cc1[N+](=O)[O-]`, the GI50 was 3.22 µM in [1]; 0.406 µM in assay [2]; 1.54 µM in assay [3]; 2.68 µM in assay [4]; 9.95 µM in assay [5]; 3.04 µM in assay [6]. Also, the GI50 was 6.75 µM in [7], 11 µM in assay [8], 1.75 µM in assay [9] and 1.71 µM in assay [10]. Besides, the TGI in assay [1] was 9.93 µM; in assay [2], > 43.6 µM; in assay [3], 3.7 µM; in assay [4], 8.54 µM; in assay [5], 56.3 µM; in assay [6], 11.9 µM. Further, the TGI in assay [7] stood at 18.4 µM; in [8], 25.1 µM; in [9] it was 4.9 µM; in assay [10], 5.97 µM.

As to `Nc1c(C(=O)c2ccccc2)cnn1-c1ccc(F)cc1`, the GI50 in assay [1], in [2], in assay [3], in assay [4], in assay [5] and in assay [6] was > 25 µM each time. The GI50 in assay [7], in assay [8], in assay [9] and in [10] was > 25 µM in each case. Besides, the TGI in assay [1], in [2], in [3], in assay [4], in assay [5] and in assay [6] was > 25 µM each time. Besides, the TGI in assay [7], in assay [8], in assay [9] and in assay [10] was > 25 µM each time.

In the case of `COC(=O)c1ccc2c(c1)/C(=C\c1cc(Br)c(O)c(Br)c1)C(=O)N2`, the GI50 in assay [1] was 10.6 µM; in [2], 5.98 µM; in assay [3], 8.29 µM; in assay [4] it was 4.97 µM; in [5] it was 4.75 µM; in assay [6], 6.83 µM. Moreover, the GI50 is 3.96 µM in assay [7], 12.4 µM in assay [8], 4.24 µM in [9] and 2.77 µM in assay [10]. Besides, the TGI in [1] was > 25 µM; in assay [2] it was > 25 µM; in assay [3], > 25 µM; in assay [4], 14.6 µM; in [5], > 22.6 µM; in [6], > 25 µM. In addition, the TGI in assay [7] was > 25 µM; in assay [8] it was > 25 µM; in [9] it was 15.5 µM; in [10] it was 8.8 µM.

Take `CN(C)c1ccc(N=Nc2ccccn2)c(O)c1`: the GI50 is 0.391 µM in [1]; 0.0979 µM in assay [2]; 0.254 µM in assay [3]; 0.228 µM in assay [4]; 3.53 µM in [5]; 0.446 µM in assay [6]. In addition, the GI50 in assay [7] is 0.672 µM; in [8] it was 0.501 µM; in assay [9], 1.24 µM; in assay [10] it was 0.369 µM. Moreover, the TGI was > 100 µM in assay [1]; > 71.7 µM in assay [3]; 1.46 µM in [4]; > 85.5 µM in assay [5]; > 100 µM in assay [6]; > 100 µM in [7]. Besides, the figures for the TGI in assay [8] and in assay [9] were > 100 µM and 9.04 µM, respectively.

In the case of `CN(C)c1ncnc2c1ncn2CCn1cnc2c(N(C)C)ncnc21`, the TGI in assay [1], in assay [2], in assay [3], in assay [4], in assay [5] and in assay [6] was > 100 µM each time. Further, the TGI in [7], in assay [8], in assay [9] and in assay [10] was > 100 µM each time.

`C[C@H]1CN[C@@H]2[C@@H](C)[C@H]3[C@@H](C[C@H]4[C@@H]5CC[C@H]6C[C@@H](N)CC[C@]6(C)[C@H]5CC[C@]34C)O[C@@]2(O)C1`: the TGI in [1] came out at 7.24 µM; in assay [2], 4.27 µM; in [3], 3.14 µM; in assay [4], 4.08 µM; in [5], 6.55 µM; in assay [6], 4.3 µM. The TGI came to 4.23 µM in assay [7], 6.96 µM in assay [8], 3.74 µM in assay [9] and 4.6 µM in assay [10].

Take `O=C(Nc1ccc(Cl)c(C(F)(F)F)c1)c1ccc(NC2=C(Cl)C(=O)N(Cc3ccccc3)C2=O)cc1`: the GI50 in [1] was 2.28 µM; in [2], 1.98 µM; in [3] it was 13.9 µM; in [4], 2.58 µM; in assay [5] it was 2.43 µM; in assay [6], 17.1 µM. Moreover, the GI50 is 4.4 µM in [7], 29.2 µM in assay [8], 16.3 µM in assay [9] and 16.6 µM in assay [10]. For the same molecule, the TGI in assay [1] was found to be 5.78 µM; in [2], 6.07 µM; in assay [3] it was 27.2 µM; in assay [4] it was 6.46 µM; in [5], 5.67 µM; in assay [6] it was 31 µM. For the same molecule, the TGI in [7] was 17.6 µM; in [8] it was > 100 µM; in [9], 42.7 µM; in assay [10], 30.2 µM.
